pIC50: −log10 of the molar value. Entries after “also recorded” stand apart in the source; their conditions may differ. Read-outs that look alike come from different tables or passages of the source.
Tests used:
Type in all cases: cell-based
C3H10T(1/2) cells = assay: C3H10T(1/2) assay for Hh pathway activation (alkaline phosphatase); details: Mus musculus, C3H 10T1/2; Shh-induced differentiation, alkaline phosphatase; read-out: IC50 (uM) Shh/C3H10T[1/2] cells
Description: C3H10T(1/2) assay for Hh pathway activation. C3H10T(1/2) cells (ATCC) were plated into 96-well plates using DMEM containing 10% FBS, 100 U/mL penicillin, 0.1 mg/mL streptomycin, 5% Shh-N-conditioned medium, and various concentrations of the Hh pathway inhibitors. After approximately 40 h, the cells were washed with PBS and lysed in 50 μL of buffer containing 50 mM Tris-HCl, pH 9.5, 150 mM NaCl, 5 mM MgCl2, and 1% Triton X-100. Alkaline phosphatase activities in the cell lysates were quantified by adding 10 μL of the lysate to 50 μL of CDP-Star chemiluminescence reagent (Perkin Elmer) and measuring the resulting chemiluminescence on a Veritas microplate luminometer.

Hh pathway = assay: Shh-LIGHT2 assay for Hh pathway activation (Gli-dependent firefly luciferase); details: for IC50: Shh Light2; for pIC50: SAG-stimulated Shh-LIGHT2 cells, firefly luciferase, read-out: median inhibitory concentrations (IC50s) in the screen
Description: Shh-LIGHT2 assay for Hh pathway activation and library screening conditions. h-N-conditioned medium was prepared as previously described. […] For 96-well plate assays, Shh-LIGHT2 cells were seeded into each plate (10,000 cells/well) and cultured to confluency. The Shh-LIGHT2 cells were then grown in DMEM containing 0.5% CS, 100 U/mL penicillin, 0.1 mg/mL streptomycin, either 5% Shh-N-conditioned medium or 500 nM SAG, and various concentrations of the HPIs. After the cells were cultured for another 30 h, the resulting firefly and Renilla luciferase activities were measured using a Dual Luciferase Reporter kit (Promega) and a Veritas microplate luminometer (Turner Biosystems).
When the cells reached >90% confluency, they were removed by trypsinization and diluted to a final volume of 50 mL medium. This cell suspension was then plated into clear-bottom, white-walled 384-well plates using a Titertek Multidrop dispenser (50 μL/well) and the cells were cultured until they reached confluency (3-4 days). […] The plates were then placed into an automated Staccato system (Caliper Life Sciences), which includes an automated CO2 incubator. An automated protocol was then run, in 3 which a Multidrop dispenser added 10 μL of a SAG solution in 0.5% CS medium (final SAG concentration of 500 nM) to columns 1-22 and 100 nL of each compound solution was added to the plates using a V&P Scientific pin tool, resulting in a final compound screening concentration of 10 μM. The SAG-free wells were used as negative controls. After 28-32 h, the assay medium was manually removed and the plates were frozen. To assay the firefly luciferase activities, the plates were thawed and placed into a Twister II stacker in the Staccato system. Bright-Glo luciferase substrate (Promega) was added by the Multidrop dispenser and the plates were analyzed on an Analyst GT microplate reader (2 min in the dark, 0.2 sec integration/well; Molecular Devices). Hits were defined as compounds that reduce the firefly luciferase signal by at least 50% compared to inhibitor-free controls. Primary hits were then re-tested in duplicate in an eight-point, 1:1 serially diluted doseresponse curve with a starting concentration of 20 μM. In these experiments, the median inhibitory concentration (IC50) for both firefly and Renilla luciferase were determined using a Dual-Glo kit (Promega).

Gli1 = target: T1, Gli1 (Mus musculus, UniProt P47806); assay: Hh pathway activation mediated by overexpression of Gli1; details: for IC50: NIH-3T3 cells overexpressing Gli1, read-out: IC50 (uM) Gli1 Transfected or Infection; for Inhibition of Hh pathway activity induced by Gli1 overexpression: NIH-3T3 cells, Gli-dependent firefly luciferase
T1 construct: expressed in transfected cells; host or cells: NIH-3T3
T1 sequence (P47806 1-1111): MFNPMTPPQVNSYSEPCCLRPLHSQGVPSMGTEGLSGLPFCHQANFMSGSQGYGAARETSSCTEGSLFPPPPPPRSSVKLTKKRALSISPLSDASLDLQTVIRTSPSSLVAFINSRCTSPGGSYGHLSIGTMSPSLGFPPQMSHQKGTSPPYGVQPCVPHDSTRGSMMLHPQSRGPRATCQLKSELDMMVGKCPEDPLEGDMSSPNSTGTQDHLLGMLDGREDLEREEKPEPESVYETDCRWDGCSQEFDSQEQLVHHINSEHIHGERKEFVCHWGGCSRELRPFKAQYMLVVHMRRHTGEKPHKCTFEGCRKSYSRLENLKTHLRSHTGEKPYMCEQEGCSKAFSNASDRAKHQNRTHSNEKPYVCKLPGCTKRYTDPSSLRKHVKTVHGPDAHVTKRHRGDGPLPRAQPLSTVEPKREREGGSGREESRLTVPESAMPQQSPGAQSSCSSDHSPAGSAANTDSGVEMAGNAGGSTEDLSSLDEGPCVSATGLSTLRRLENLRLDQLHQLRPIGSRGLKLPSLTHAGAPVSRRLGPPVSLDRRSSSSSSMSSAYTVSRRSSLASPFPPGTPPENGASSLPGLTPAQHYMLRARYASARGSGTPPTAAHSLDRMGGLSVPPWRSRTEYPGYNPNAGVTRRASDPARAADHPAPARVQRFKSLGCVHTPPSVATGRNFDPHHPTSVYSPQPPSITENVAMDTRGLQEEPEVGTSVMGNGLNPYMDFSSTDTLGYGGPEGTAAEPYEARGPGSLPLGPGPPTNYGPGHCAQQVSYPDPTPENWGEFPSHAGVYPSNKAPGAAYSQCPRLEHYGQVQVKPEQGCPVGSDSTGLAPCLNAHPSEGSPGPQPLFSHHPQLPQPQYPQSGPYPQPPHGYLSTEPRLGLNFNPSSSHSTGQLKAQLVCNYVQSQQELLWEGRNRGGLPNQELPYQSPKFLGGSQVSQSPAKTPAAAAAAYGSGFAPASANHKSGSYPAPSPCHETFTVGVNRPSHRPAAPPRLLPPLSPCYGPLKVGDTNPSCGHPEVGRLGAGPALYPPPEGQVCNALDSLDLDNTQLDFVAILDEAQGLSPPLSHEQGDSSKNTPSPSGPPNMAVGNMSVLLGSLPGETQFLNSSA
Description: (§1) Hh pathway activation mediated by the overexpression of Gli, Gli2, Gli2αPKA, or Gli2αGSK. […] The cells were co-transfected the following day with 220 ng/well pcDNA-derived Gli1, Gli2, or Gli2 phosphosite mutant expression vectors and 80 ng/well of a 1:15 mixture of phRLTK (Promega) and 8XGIiBS-FL. After transfection, cells were grown to confluence (approximately 48 h). The cell were then incubated for an additional 28-32 h in DMEM containing 0.5% CS, 100 U/mL penicillin, 0.1 mg/mL streptomycin, and either DMSO, 50 μM forskolin, 50 μM LY294002, or various concentrations of the HPIs. Firefly and Renilla luciferase activities were measured using a dual luciferase kit and a Veritas microplate luminometer.

Gli2 = target: T2, Gli2 (Mus musculus, UniProt Q0VGT2); assay: Hh pathway activation mediated by overexpression of Gli2; details: for IC50: NIH-3T3 cells overexpressing Gli2, read-out: IC50 (uM) Gli2 Transfected; for Inhibition of Hh pathway activity induced by Gli2 overexpression: NIH-3T3 cells, Gli-dependent firefly luciferase
T2 construct: expressed in transfected cells; host or cells: NIH-3T3
T2 sequence (Q0VGT2 whole entry): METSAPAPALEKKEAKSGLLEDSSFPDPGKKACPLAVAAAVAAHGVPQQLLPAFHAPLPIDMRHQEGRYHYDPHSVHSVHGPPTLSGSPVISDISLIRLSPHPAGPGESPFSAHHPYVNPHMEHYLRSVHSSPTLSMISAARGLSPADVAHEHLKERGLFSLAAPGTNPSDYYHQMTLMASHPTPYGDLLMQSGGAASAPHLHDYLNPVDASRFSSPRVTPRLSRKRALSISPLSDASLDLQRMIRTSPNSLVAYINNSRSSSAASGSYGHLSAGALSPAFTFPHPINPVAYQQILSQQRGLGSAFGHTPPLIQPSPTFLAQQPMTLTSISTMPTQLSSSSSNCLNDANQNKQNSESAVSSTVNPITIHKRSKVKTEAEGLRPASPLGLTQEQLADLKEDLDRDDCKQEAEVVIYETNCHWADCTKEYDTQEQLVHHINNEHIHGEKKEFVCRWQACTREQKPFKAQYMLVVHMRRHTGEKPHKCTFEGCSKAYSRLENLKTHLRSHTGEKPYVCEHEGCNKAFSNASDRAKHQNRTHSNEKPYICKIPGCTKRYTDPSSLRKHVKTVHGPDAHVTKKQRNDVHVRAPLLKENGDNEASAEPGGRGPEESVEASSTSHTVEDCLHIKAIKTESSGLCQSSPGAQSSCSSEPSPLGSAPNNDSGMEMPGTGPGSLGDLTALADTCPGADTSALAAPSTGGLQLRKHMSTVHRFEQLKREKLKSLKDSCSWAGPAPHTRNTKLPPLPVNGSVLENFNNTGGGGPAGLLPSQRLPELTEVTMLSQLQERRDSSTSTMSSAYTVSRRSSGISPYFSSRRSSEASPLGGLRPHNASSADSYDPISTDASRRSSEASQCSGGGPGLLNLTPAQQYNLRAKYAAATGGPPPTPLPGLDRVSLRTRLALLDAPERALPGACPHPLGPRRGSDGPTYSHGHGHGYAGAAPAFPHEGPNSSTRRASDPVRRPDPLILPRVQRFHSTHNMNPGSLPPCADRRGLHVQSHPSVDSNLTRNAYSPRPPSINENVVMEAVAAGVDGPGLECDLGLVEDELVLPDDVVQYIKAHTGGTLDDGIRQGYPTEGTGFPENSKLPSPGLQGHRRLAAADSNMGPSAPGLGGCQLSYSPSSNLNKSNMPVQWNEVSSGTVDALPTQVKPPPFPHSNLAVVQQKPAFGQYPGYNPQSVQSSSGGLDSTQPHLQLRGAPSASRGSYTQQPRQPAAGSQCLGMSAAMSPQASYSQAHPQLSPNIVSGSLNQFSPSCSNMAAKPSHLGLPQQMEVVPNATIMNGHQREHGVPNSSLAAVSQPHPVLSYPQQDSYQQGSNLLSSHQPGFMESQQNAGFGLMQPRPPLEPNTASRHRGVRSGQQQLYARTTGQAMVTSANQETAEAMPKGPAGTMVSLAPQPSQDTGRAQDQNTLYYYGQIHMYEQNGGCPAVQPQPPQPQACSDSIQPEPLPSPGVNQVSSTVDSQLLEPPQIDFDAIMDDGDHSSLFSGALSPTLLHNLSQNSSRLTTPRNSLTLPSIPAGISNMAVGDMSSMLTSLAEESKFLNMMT
Description: as §1

[1] = stimulated with 500 nM SAG, read-out: IC50 (uM) SAG/Shh-LIGHT2 cells
[2] = stimulated with Shh-N-conditioned medium, read-out: IC50 (uM) Shh/Shh-LIGHT2 cells

Row | SMILES | IC50 (C3H10T(1/2) cells) [µM] | IC50 (Hh pathway; [1]) [µM] | IC50 (Hh pathway; [2]) [µM] | IC50 (Gli1) [µM] | IC50 (Gli2) [µM] | pIC50 (Hh pathway) | Inhibition of Hh pathway activity induced by Gli1 overexpression (Gli1) | Inhibition of Hh pathway activity induced by Gli2 overexpression (Gli2; listed as HPI-2) | Inhibition of Hh pathway activity induced by Gli1 overexpression (Gli1; listed as HPI-4) | Inhibition of Hh pathway activity induced by Gli2 overexpression (Gli2; listed as HPI-4)
1 | CCOc1ccc(CCNc2cnnc3c(Cl)cccc23)cc1OCC [Compound 16] | 0.2 | 8 | 4.5 | > 30 | > 30 | – | – | – | – | –
2 | COc1ccc(OC)c2c1cc1n2CC(C)(C(=O)NC2CCCCCCC2)N(CCN(C)C)C1=O (stereo not drawn) [Compound 17] | 2 | 2 | 2 | > 30 | 6 | > 5.00 | entirely due to a moderate increase in Renilla luciferase activity | preferentially inhibits Gli2 | – | –
3 | N#CC(C(=O)c1ccc(Cl)cc1Cl)=C1NC(=O)c2ccccc2N1 [Compound 18] | 0.7 | 8 | 7.5 | > 10 | > 10 | > 5.00 | – | – | no significant activity; also recorded: inactive | no significant activity; also recorded: inactive
